± gives the expanded uncertainty stated by the source.
Legend:
[1] = 101 kPa, Liquid
[2] = xn = mol fraction of the nth substance listed; conditions: 101 kPa, Liquid, x2 = 0

Compound	mass density ([1]; 303.15 K)	speed of sound ([1]; 303.15 K)	viscosity ([1]; 303.15 K)	mass density ([1]; 308.15 K)	speed of sound ([1]; 308.15 K)	viscosity ([1]; 308.15 K)	mass density ([1]; 313.15 K)	speed of sound ([1]; 313.15 K)	viscosity ([1]; 313.15 K)	mass density ([2]; 303.15 K)	speed of sound ([2]; 303.15 K)	viscosity ([2]; 303.15 K)	mass density ([2]; 308.15 K)	speed of sound ([2]; 308.15 K)	viscosity ([2]; 308.15 K)	mass density ([2]; 313.15 K)	speed of sound ([2]; 313.15 K)	viscosity ([2]; 313.15 K)
Clc1ccccc1 [chlorobenzene]	1086.6 ± 5 kg/m3	1249 ± 14 m/s	0.7147 ± 0.048 mPa·s	1085.1 ± 5.1 kg/m3	1224 ± 14 m/s	0.7469 ± 0.05 mPa·s	1081.1 ± 5.2 kg/m3	1220 ± 14 m/s	0.7383 ± 0.05 mPa·s									
O=[N+]([O-])c1ccccc1 [nitrobenzene] + O=Cc1ccccc1										1189.6 ± 5.4 kg/m3	1407 ± 15 m/s	1.618 ± 0.075 mPa·s	1189.4 ± 5.5 kg/m3	1361 ± 15 m/s	1.618 ± 0.075 mPa·s	1187.2 ± 5.6 kg/m3	1326 ± 15 m/s	1.61 ± 0.075 mPa·s

— the NIST ThermoML archive (doi:10.1007/s10765-013-1492-1)
